Test results: patent US10987349B2, “Antitumor agent and bromodomain inhibitor” (FUJIFILM Corporation, priority 2016, dated 2021)

Assays:
[1] = system: human cervical epidermoid carcinoma cell line Hela; experiment: Cell growth test (Cell Titer Glo) Hela; format: cell-based; settings: 3 to 5 days
Source text: (§1) The human undifferentiated thymoma cell line Ty-82 (JCRB), the human acute myeloid leukemia cell lines MV4-11 (ATCC), MOLM-13 (ATCC) and RS4-11 (ATCC), the human lymphoma cell line Raji (JCRB), the human cervical epidermoid carcinoma cell line Hela (JCRB), the human lung adenocarcinoma cell line A549 (ATCC), the human colon cancer cell lines DLD1 (DS Pharma) and HCT116 (DS Pharma), and the human pancreatic cancer cell line MIAPACA-2 (ATCC) were used to carry out a cell growth test.
(§2) Ty-82, MV4-11, MOLM-13, RS4-11, Raji and DLD1 were each seeded in a well plate, in which Roswell Park Memorial Institute (RPMI)-1640 medium supplemented with penicillin/streptomycin and fetal bovine serum (FBS) with a final concentration of 10% was placed. Hela was seeded in Dulbecco's Modified Eagle's medium (DMEM) supplemented with penicillin/streptomycin and FBS with a final concentration of 10%. A549 and MIAPACA-2 were each seeded in a well plate, in which Minimum Essential Medium (MEM) supplemented with penicillin/streptomycin and FBS with a final concentration of 10% was placed. […]
(§3) Thereafter, a medium containing a test compound serially diluted with DMSO, or DMSO, was added to each well of the plate, in which the cells had been seeded, and the obtained mixture was then cultured under conditions of 37° C. and 5% CO2 for 3 to 5 days. Cell Titer Glo reaction solution (Promega) was added to the culture, and the amount of luminescence was then measured using Envision plate reader (PerkinElmer). Since the amount of luminescence is in proportion to the concentration of adenosine triphosphate (ATP) in cells, the amount of luminescence was used as an indicator of the number of living cells. The growth inhibition percentage of the test compound in each concentration was calculated according to the following equation. Growth inhibition percentage (%)=(amount of luminescence in test compound−added well)/(amount of luminescence in DMSO−added well)×100 […]

[2] = system: human colon cancer cell line HCT116; experiment: Cell growth test (Cell Titer Glo) HCT116; format: cell-based; settings: HCT-116, 3 to 5 days
Source text: as §1, §2, §3

[3] = system: MV4-11 subcutaneously transplanted tumor; experiment: Medicinal effect test, MV4-11-subcutaneously-transplanted cancer-bearing mouse models, oral administration; format: in vivo; settings: orally, once per day, 14 days, BALB/c nu/nu mice
Method: The human acute myeloid leukemia cell line MV4-11 (ATCC) was suspended in a mixture of RPMI-1640 medium and Matrigel (Corning), and the obtained mixture was then subcutaneously transplanted into 6-week-old female BALB/c nu/nu mice (CLEA Japan, Inc.). After confirming that the average tumor volume exceeded 200 mm^3, a test compound was dissolved in a solvent (a 0.5% methyl cellulose aqueous solution or water containing 1 equivalent of hydrochloric acid), and the obtained solution was then orally administered to the mice at a daily dose of 10 to 30 mg/kg, once per day, for 14 days. As a negative control, a solvent administration group involving administration of a 0.5% methyl cellulose aqueous solution was established. The tumor diameter was measured on a daily basis, and the tumor volume was calculated. The tumor volume was calculated by measuring the major axis and minor axis of the tumor and then applying the following equation. Tumor volume (mm^3)=[major axis (mm)×minor axis (mm)×minor axis (mm)]/2
T/C (%) was calculated from the average tumor volume of each group according to the following equation, and medicinal effects were then evaluated. T/C(%)=[1−(average tumor volume of drug administration group)/(average tumor volume of solvent administration group)]×100%

BRD3 BD2 = target: T1, BRD3 BD2 (Homo sapiens, UniProt Q15059); experiment: Binding assay, BRD3 BD2 to acetylated histone H4 Peptide-Biotin (EPIgeneous Binding Domain Kit B); settings: for inhibition at 0.3 µM: test compound at 300 nmol/L, read-out: Binding inhibition percentage BRD3 BD2
T1 construct: BRD2 BD2, BRD3 BD2 and BRD4 BD2 (Cisbio); purchased Cisbio
In short: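 HTRF binding of GST-tagged BD2 (20 nmol/L working stock) to biotinylated acetyl-histone H4 peptide (250 nmol/L working stock), using streptavidin-XL665 and anti-GST Eu cryptate. Incubated 20 h at room temperature; 665/620 nm ratio versus DMSO gives % inhibition; IC50 by four-parameter fit, or % inhibition at 300 nmol/L.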

[4] = system: human undifferentiated thymoma cell line Ty-82; experiment: Cell growth test (Cell Titer Glo) Ty-82; format: cell-based; settings: TY82, 3 to 5 days
Source text: as §1
Ty-82, MV4-11, MOLM-13, RS4-11, Raji and DLD1 were each seeded in a well plate, in which Roswell Park Memorial Institute (RPMI)-1640 medium supplemented with penicillin/streptomycin and fetal bovine serum (FBS) with a final concentration of 10% was placed. Hela was seeded in Dulbecco's Modified Eagle's medium (DMEM) supplemented with penicillin/streptomycin and FBS with a final concentration of 10%. A549 and MIAPACA-2 were each seeded in a well plate, in which Minimum Essential Medium (MEM) supplemented with penicillin/streptomycin and FBS with a final concentration of 10% was placed. HCT116 was seeded in a well plate, in which McCoy's 5A medium supplemented with penicillin/streptomycin and FBS with a final concentration of 10% was placed.
Thereafter, a medium containing a test compound serially diluted with DMSO, or DMSO, was added to each well of the plate, in which the cells had been seeded, and the obtained mixture was then cultured under conditions of 37° C. and 5% CO2 for 3 to 5 days. Cell Titer Glo reaction solution (Promega) was added to the culture, and the amount of luminescence was then measured using Envision plate reader (PerkinElmer). Since the amount of luminescence is in proportion to the concentration of adenosine triphosphate (ATP) in cells, the amount of luminescence was used as an indicator of the number of living cells. The growth inhibition percentage of the test compound in each concentration was calculated according to the following equation. Growth inhibition percentage (%)=(amount of luminescence in test compound−added well)/(amount of luminescence in DMSO−added well)×100
The growth inhibition percentage of the test compound in each concentration was plotted by performing a non-linear regression analysis [(log (inhibitor) vs. response—Variable slope (four parameters)], using Graphpad prism 5, and a 50% growth inhibitory concentration [GI50 (nmol/L)] was then calculated.

T1 sequence (Q15059 306-415 limits assumed): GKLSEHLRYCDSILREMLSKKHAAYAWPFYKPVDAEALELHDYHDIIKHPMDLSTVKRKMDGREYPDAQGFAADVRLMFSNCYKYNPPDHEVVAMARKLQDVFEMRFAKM

SMILES: CCn1c(=O)cc(C2CCN(C)CC2)c2cc(C(=O)N(C)c3ccc4c(c3)CCC4)ccc21 [Example 17, N-(2,3-dihydro-1H-inden-5-yl)-1-ethyl-N-methyl-4-(1-methylpiperidin-4-yl)-2-oxo-1,2-dihydroquinoline-6-carboxamide]
- GI50 [1]: 314 nM
- GI50 [2]: 116 nM
- T/C (%) ([3]; 10 mg/kg): 21%
- T/C (%) ([3]; 30 mg/kg): 49%
- IC50 (BRD3 BD2): 14 nM
- inhibition at 0.3 µM (BRD3 BD2): 91%
- GI50 [4]: 6 nM

SMILES: CCn1c(=O)cc(N2CCOCC2)c2cc(-n3c(-c4ccc(Cl)cc4)c[nH]c3=O)ccc21 [Example 245, 6-(5-(4-chlorophenyl)-2-oxo-2,3-dihydro-1H-imidazol-1-yl)-1-ethyl-4-(morpholin-4-yl)quinolin-2(1H)-one]
- GI50 [1]: 1860 nM
- GI50 [2]: 628 nM
- T/C (%) ([3]; 30 mg/kg): 42%
- IC50 (BRD3 BD2): 4 nM
- inhibition at 0.3 µM (BRD3 BD2): 92%
- GI50 [4]: 10 nM

SMILES: CCn1c(=O)cc(C2CCN(C)CC2)c2cc(C(=O)N(C)c3ccc(C)cc3)ccc21 [Example 14, 1-Ethyl-N-methyl-N-(4-methylphenyl)-4-(1-methylpiperidin-4-yl)-2-oxo-1,2-dihydroquinoline-6-carboxamide]
- GI50 [1]: 570 nM
- GI50 [2]: 241 nM
- T/C (%) ([3]; 10 mg/kg): 34%
- T/C (%) ([3]; 30 mg/kg): 45%
- IC50 (BRD3 BD2): 70 nM
- inhibition at 0.3 µM (BRD3 BD2): 83%
- GI50 [4]: 12 nM
